Data: US5569655A, “Substituted heterocyclylisoquinolinium salts and compositions and method of use thereof” (Sterling Winthrop Inc., priority 1994, dated 1996)

What was measured:
[1] = biological target: PCP recognition sites (PCP receptor); test: [3H]TCP radioreceptor assay (binding to PCP recognition sites); set-up: species or system rat (male Sprague-Dawley; details: rat whole brain membranes, approx. 1 nM [3H]TCP; mean of at least two determinations
Experimental: [^3 H]TCP Radioreceptor Assay
[^3 H]TCP binding to PCP recognition sites was performed as described by Vignon et al. Brain Research 1983, 280, 194-197. Male Sprague-Dawley rats were sacrificed by decapitation, and whole brains were homogenized in 10 volumes (wt/vol) of cold Tris-HCl buffer (50 mM, pH 7.7) using a Brinkmann Polytron (setting 6, 30 sec). The homogenate was centrifuged at 40,000×g for 10 min at 4° C. The supernatant was decanted, and the homogenization and centrifugation steps were repeated twice as described above. Following this, the pellet was resuspended in Tris-HCl (5 mM, pH 7.7) at a tissue concentration of 0.5-0.75 g/ml, and one ml aliquots were frozen at -70° C. until use. The binding characteristics for PCP recognition sites were not altered by the freezing of membrane suspensions.
On the day of the assay, membrane aliquots were thawed, resuspended in fresh 5 mM Tris-HCl buffer at a tissue concentration of 1 mg/ml, and stored on ice until use. Each assay tube contained 100 μl of [^3 H]TCP at a final concentration of approximately 1 nM, 100 μl of various concentrations of the compounds of interest, 500 μl of the tissue suspension and 300 μl of buffer to a final assay volume of 1 ml and a final protein concentration of 0.5 mg/tube. Non-specific binding was defined by addition of a final concentration of 100 μM PCP to blank tubes. All tubes were incubated at room temperature for 25 min before termination of the reaction by rapid filtration over Whatman GF/B glass fiber filters that had been presoaked in a solution of 0.5% polyethylenimine for at least 1 hr prior to use. Filters were washed with three 4 ml volumes of cold Tris buffer. Following addition of scintillation cocktail, the amount of bound radioactivity was determined by liquid scintillation spectrometry using a Beckman LS 5000TA liquid scintillation counter with an efficiency for tritium of approximately 55%. Inhibition constants (Ki values) were calculated using the EBDA/LIGAND program (McPherson, J. Pharmacol. Meth. 1985, 14, 213-228), purchased from Elsevier/Biosoft, Inc. The results are reported as Ki values (in nM) which are expressed as the mean of at least two separate determinations, or as a percent (%) inhibition of binding at 10 μM.
(§1) Table 4 summarizes the results obtained from the testing of representative compounds of the invention in the [^3 H]TCP radioreceptor assay as well as in the antagonism of NMDA-induced neurotoxicity in cultured neurons.

[2] = tested on: NMDA-induced neurotoxicity in cultured cortical neurons; test: Antagonism of NMDA-induced neurotoxicity in cultured neurons; assay type: cell-based, mouse (Swiss-Webster); details: Mus musculus, Cortical neurone, 500 μM NMDA for 30 minutes; LDH activity after 24 hours
Experimental: Antagonism of NMDA-induced Neurotoxicity in Cultured Neurons
Preparation of cultured cortical neurons
Pregnant, Swiss-Webster mice were obtained from Taconic Farms (Germantown, N.Y.) and sacrificed 16 days post conception. Fetuses were removed and placed in a sterile dish containing Hank's balanced salt solution (HBSS), pH 7.4. Brain cortices were dissected, meninges were removed, the tissue was minced and placed into a solution of HBSS containing 0.25% (w/v) trypsin at 37° C. for 15 minutes. Tissue was then triturated with a sterile pasteur pipet, diluted with minimal essential media (Gibco 330-1430), pH 7.4, supplemented with 10% horse serum, 10% fetal calf serum, 2 mM 1-glutamine, 21 mM d-glucose, 2.2 g/L sodium bicarbonate, 1000 U/ml penicillin, and 1,000 μg/ml streptomycin. Cells were plated onto Falcon primaria 96 well plates at a final density of 50,000 cells/well and incubated at 37° C. in the presence of 5% (v/v) carbon dioxide. After 5 days, plating media was replaced with maintenance media containing minimal essential media (Gibco 330-1430), pH 7.4, supplemented with 10% horse serum, 10% 1-glutamine, 21 mM D-glucose, 2.2 g/l sodium bicarbonate,1,000 U/ml penicillin, 1,000 μg/ml streptomycin, and 10 μM cytosine arabinoside. On days 7 and 10, media was replaced with maintenance media as above lacking the cytosine arabinoside. Experiments were conducted on day 13.
Neuroprotection Assessment
Day 13 cultured cortical neurons were washed twice with minimal essential media, pH 7.4 and then exposed for 30 minutes to 500 μM N-methyl-D-aspartic acid (NMDA) with or without varying concentrations of test agents. […] MK-801 and test agents were prepared in minimal essential media supplemented with 21 mM d-glucose and 2.2 g/L sodium bicarbonate (MEM). After 30 minutes, media was replaced with MEM alone. Exposure of neurons to test agents was limited to the NMDA treatment period. Twenty-four hours after removal of NMDA, an aliquot of media from each well was removed for assessment of cell injury by determining lactate dehydrogenase (LDH) activity by the method of Wroblewski and LaDue Proc. Soc. Exp. Biol. Med. 1955, 90, 210-213. The results are expressed as an IC50 (in nM) value (concentration causing 50% inhibition) for the antagonism of NMDA-induced neurotoxicity.
as §1

CCOC1(OCC)C2c3ccccc3C([n+]3ccsc32)C1(C)C (stereo not shown) [Example 1i, 11,11-diethoxy-12,12-dimethyl-5,10-ethano-5,10-dihydrothiazolo[3,2-b]isoquinolinium chloride 3/5 hydrate]
Ki [1]: 0.0061 µM
IC50 [2]: 0.173 µM

Cc1csc2[n+]1C1CC(c3ccoc3)(c3ccoc3)C2c2ccccc21 (stereo not shown) [15(F), 11,11-di(3-furyl)-5,10-ethano-5,10-dihydro-3-methylthiazolo[3,2-b]isoquinolinium chloride]
Ki [1]: 0.02 µM
IC50 [2]: 0.3 µM

c1ccc2c(c1)C1CC(c3ccn[nH]3)(c3ccn[nH]3)C2c2scc[n+]21 (stereo not shown) [18(h), 11,11-di-(pyrazol-5-yl)-5,10-ethano-5,10-dihydrothiazolo[3,2-b]isoquinolinium chloride]
Ki [1]: 0.021 µM
IC50 [2]: 0.48 µM

Cn1cc[n+]2c1C1c3ccccc3C2CC1(c1ccoc1)c1ccoc1 (stereo not shown) [13(b), 11,11-di(3-furyl)-5,10-ethano-5,10-dihydro-1-methylimidazo[1,2-b]isoquinolin-4-ium chloride]
Ki [1]: 0.0029 µM
IC50 [2]: 0.257 µM

CCOC1(OCC)C2c3c(OC)cccc3C([n+]3ccsc32)C1(C)C (stereo not shown) [6(d), 11,11-diethoxy-12,12-dimethyl-9-methoxy-5,10-ethano-5,10-dihydrothiazolo[3,2-b]isoquinolinium chloride]
Ki [1]: 0.0092 µM
IC50 [2]: 0.079 µM
